How the values were obtained:
[1] = target: T1, Melanocyte-stimulating hormone receptor (Homo sapiens, UniProt Q01726); test: Agonist activity at human MC1R stably expressed in human Flp-In-293 cells assessed as cAMP accumulation incubated for 45 mins in presence of IBMX by Lance Ultra cAMP assay; format: functional, cell-based
Target sequence in this assay (Q01726 whole entry): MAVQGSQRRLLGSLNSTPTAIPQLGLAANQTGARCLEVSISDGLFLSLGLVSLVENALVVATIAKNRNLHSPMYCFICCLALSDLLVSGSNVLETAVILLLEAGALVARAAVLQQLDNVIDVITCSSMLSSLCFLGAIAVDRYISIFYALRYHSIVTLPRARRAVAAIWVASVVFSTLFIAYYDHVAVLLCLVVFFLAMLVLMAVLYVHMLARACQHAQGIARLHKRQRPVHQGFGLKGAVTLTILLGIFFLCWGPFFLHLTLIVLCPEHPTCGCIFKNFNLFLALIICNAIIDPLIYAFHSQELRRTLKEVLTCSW

Melanocortin receptor 5 [2] = target: T2, Melanocortin receptor 5 (Homo sapiens, UniProt P33032); test: Displacement of sCy5-MT-I from human MC5R stably expressed in human HEK293 cells incubated for 2 hrs by Cheng-Prusoff equation based FACS analysis; format: cell-based
Melanocortin receptor 3 [3] = target: T3, Melanocortin receptor 3 (Homo sapiens, UniProt P41968); test: Displacement of sCy5-MT-I from human MC3R stably expressed in human HEK293 cells incubated for 2 hrs by Cheng-Prusoff equation based FACS analysis; format: cell-based
Melanocortin receptor 5 [4] = target: T2, Melanocortin receptor 5; test: Agonist activity at human MC5R stably expressed in human Flp-In-293 cells assessed as cAMP accumulation at 1 uM incubated for 45 mins in presence of IBMX by Lance Ultra cAMP assay; format: functional, cell-based
Melanocortin receptor 4 [5] = target: T4, Melanocortin receptor 4 (Homo sapiens, UniProt P32245); test: Displacement of sCy5-MT-I from human MC4R stably expressed in human HEK293 cells incubated for 2 hrs by Cheng-Prusoff equation based FACS analysis; format: cell-based
Melanocortin receptor 3 [6] = target: T3, Melanocortin receptor 3; test: Agonist activity at human MC3R stably expressed in human Flp-In-293 cells assessed as cAMP accumulation incubated for 45 mins in presence of IBMX by Lance Ultra cAMP assay; format: functional, cell-based
Melanocortin receptor 4 [7] = target: T4, Melanocortin receptor 4; test: Agonist activity at human MC4R stably expressed in human Flp-In-293 cells assessed as cAMP accumulation incubated for 45 mins in presence of IBMX by Lance Ultra cAMP assay; format: functional, cell-based
[8] = target: T1, Melanocyte-stimulating hormone receptor; test: Displacement of sCy5-MT-I from human MC1R stably expressed in human HEK293 cells incubated for 2 hrs by Cheng-Prusoff equation based FACS analysis; format: cell-based
Target sequence in this assay (Q01726 whole entry): as above

Melanocortin receptor 3 [9] = target: T3, Melanocortin receptor 3; test: Agonist activity at human MC3R stably expressed in human Flp-In-293 cells assessed as cAMP accumulation at 1 uM incubated for 45 mins in presence of IBMX by Lance Ultra cAMP assay; format: functional, cell-based; settings: filed as agonist
Melanocortin receptor 5 [10] = target: T2, Melanocortin receptor 5; test: Agonist activity at human MC5R stably expressed in human Flp-In-293 cells assessed as cAMP accumulation incubated for 45 mins in presence of IBMX by Lance Ultra cAMP assay; format: functional, cell-based
[11] = target: T1, Melanocyte-stimulating hormone receptor; test: Agonist activity at human MC1R stably expressed in human Flp-In-293 cells assessed as cAMP accumulation at 1 uM incubated for 45 mins in presence of IBMX by Lance Ultra cAMP assay; format: functional, cell-based; settings: filed as agonist
Target sequence in this assay (Q01726 whole entry, looked up): as the sequence (Q01726 whole entry) above

T4 sequence (P32245 whole entry): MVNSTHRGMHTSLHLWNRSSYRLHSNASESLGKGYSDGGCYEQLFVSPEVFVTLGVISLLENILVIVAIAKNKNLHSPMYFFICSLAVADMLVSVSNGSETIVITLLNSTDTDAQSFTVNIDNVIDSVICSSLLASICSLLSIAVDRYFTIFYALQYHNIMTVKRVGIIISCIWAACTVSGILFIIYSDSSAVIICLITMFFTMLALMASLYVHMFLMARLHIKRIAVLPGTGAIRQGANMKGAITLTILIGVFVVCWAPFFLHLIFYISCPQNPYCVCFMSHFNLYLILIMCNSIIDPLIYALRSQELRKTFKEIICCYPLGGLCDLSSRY
T3 sequence (P41968 whole entry): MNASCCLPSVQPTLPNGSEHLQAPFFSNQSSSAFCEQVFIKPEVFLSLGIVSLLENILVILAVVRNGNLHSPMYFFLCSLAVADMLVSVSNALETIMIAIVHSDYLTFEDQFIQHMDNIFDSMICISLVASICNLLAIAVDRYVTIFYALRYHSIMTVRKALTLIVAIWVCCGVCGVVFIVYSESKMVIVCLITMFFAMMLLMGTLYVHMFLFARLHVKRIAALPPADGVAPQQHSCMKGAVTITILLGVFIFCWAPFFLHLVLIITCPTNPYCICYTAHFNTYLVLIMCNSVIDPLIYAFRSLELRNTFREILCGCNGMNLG
T2 sequence (P33032 whole entry): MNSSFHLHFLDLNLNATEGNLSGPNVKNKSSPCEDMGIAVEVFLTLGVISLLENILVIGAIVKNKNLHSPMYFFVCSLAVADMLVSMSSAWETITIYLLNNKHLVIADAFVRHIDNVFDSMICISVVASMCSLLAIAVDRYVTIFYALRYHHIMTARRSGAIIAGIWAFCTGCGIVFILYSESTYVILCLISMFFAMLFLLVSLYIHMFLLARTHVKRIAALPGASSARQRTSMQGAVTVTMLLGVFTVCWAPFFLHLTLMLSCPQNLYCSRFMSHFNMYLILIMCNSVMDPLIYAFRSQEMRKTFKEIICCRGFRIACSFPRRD

Row | EC50 ([1]; read-out: pEC50 (converted)) [nM] | Ki (Melanocortin receptor 5 [2]) [nM] | Ki (Melanocortin receptor 3 [3]) [nM] | Activity (Melanocortin receptor 5 [4]) [%] | Ki (Melanocortin receptor 4 [5]; read-out: pKi (converted)) [nM] | EC50 (Melanocortin receptor 3 [6]) [nM] | EC50 (Melanocortin receptor 4 [7]; read-out: pEC50 (converted)) [nM] | Ki [8] [nM] | Activity (Melanocortin receptor 3 [9]) [%] | EC50 ([1]; read-out: EC50) [nM] | Activity (Melanocortin receptor 5 [4]; filed as agonist) [%] | EC50 (Melanocortin receptor 4 [7]; read-out: EC50) [nM] | EC50 (Melanocortin receptor 5 [10]) [nM] | Activity [11] [%] | Ki (Melanocortin receptor 4 [5]; read-out: Ki) [nM] | SMILES
1 | 10 | > 1000 | 97.7 | 17 | 0.148 | 50.1 | 1.58 | 5.01 |  |  |  |  |  |  |  | C[C@H]1NC(=O)c2cc(N)ccc2SC[C@@H](C(N)=O)NC(=O)[C@H](Cc2c[nH]c3ccccc23)NC(=O)[C@H](CCCNC(=N)N)NC(=O)[C@@H](Cc2ccccc2)NC(=O)[C@H](Cc2c[nH]cn2)NC1=O
2 | 63.1 | > 1000 | 513 | 11 | 3.02 | 1260 | 20 | 56.2 |  |  |  |  |  |  |  | C[C@@H]1NC(=O)c2cc([N+](=O)[O-])ccc2SC[C@@H](C(N)=O)NC(=O)[C@H](Cc2c[nH]c3ccccc23)NC(=O)[C@H](CCCNC(=N)N)NC(=O)[C@@H](Cc2ccccc2)NC(=O)[C@H](Cc2c[nH]cn2)NC1=O
3 | 2.69 | > 1000 | 263 | 34 | 0.141 | 39.8 | 0.501 | 3.8 |  |  |  |  |  |  |  | C[C@H]1NC(=O)c2cc(C#N)ccc2SC[C@@H](C(N)=O)NC(=O)[C@H](Cc2c[nH]c3ccccc23)NC(=O)[C@H](CCCNC(=N)N)NC(=O)[C@@H](Cc2ccccc2)NC(=O)[C@H](Cc2c[nH]cn2)NC1=O
4 | 1.58 | > 1000 | 79.4 | 15 | 0.102 | 200 | 1 | 1.12 |  |  |  |  |  |  |  | C[C@H]1NC(=O)c2cc([N+](=O)[O-])ccc2SC[C@@H](C(N)=O)NC(=O)[C@H](Cc2c[nH]c3ccccc23)NC(=O)[C@H](CCCNC(=N)N)NC(=O)[C@@H](Cc2ccccc2)NC(=O)[C@H](Cc2c[nH]cn2)NC1=O
5 | 2.24 | > 1000 | 132 |  | 0.457 | 34.7 | 0.447 | 3.39 |  |  |  |  | 372 |  |  | C#Cc1ccc2c(c1)C(=O)N[C@H](C)C(=O)N[C@@H](Cc1c[nH]cn1)C(=O)N[C@H](Cc1ccccc1)C(=O)N[C@@H](CCCNC(=N)N)C(=O)N[C@@H](Cc1c[nH]c3ccccc13)C(=O)N[C@H](C(N)=O)CS2
6 | 4.79 | > 1000 | 148 |  | 0.162 | 91.2 | 0.275 | 3.55 |  |  | 41 |  |  |  |  | C[C@H]1NC(=O)c2cc(C(=N)N)ccc2SC[C@@H](C(N)=O)NC(=O)[C@H](Cc2c[nH]c3ccccc23)NC(=O)[C@H](CCCNC(=N)N)NC(=O)[C@@H](Cc2ccccc2)NC(=O)[C@H](Cc2c[nH]cn2)NC1=O
7 | 16.6 | > 1000 | 174 |  |  | 63.1 | 0.135 | 2.51 |  |  |  |  | 295 |  | 0.06 | C[C@@H]1NC(=O)c2cc(-c3cn([C@@H]4O[C@H](CO)[C@@H](O)[C@H](O)[C@H]4O)nn3)ccc2SC[C@@H](C(N)=O)NC(=O)[C@H](Cc2c[nH]c3ccccc23)NC(=O)[C@H](CCCNC(=N)N)NC(=O)[C@@H](Cc2ccccc2)NC(=O)[C@H](Cc2c[nH]cn2)NC1=O
8 | 9.77 | > 1000 | 7.94 | 5 | 1.26 | 31.6 | 6.31 | 1.26 |  |  |  |  |  |  |  | C[C@@H]1NC(=O)[C@H](Cc2c[nH]c3ccccc23)NC(=O)[C@H](CCCNC(=N)N)NC(=O)[C@@H](Cc2ccccc2)NC(=O)[C@H](Cc2c[nH]cn2)NC(=O)c2cc([N+](=O)[O-])ccc2SC[C@@H](C(N)=O)NC1=O

Second part, the compound before the results:

Row | SMILES | EC50 ([1]; read-out: pEC50 (converted)) [nM] | Ki (Melanocortin receptor 5 [2]) [nM] | Ki (Melanocortin receptor 3 [3]) [nM] | Activity (Melanocortin receptor 5 [4]) [%] | Ki (Melanocortin receptor 4 [5]; read-out: pKi (converted)) [nM] | EC50 (Melanocortin receptor 3 [6]) [nM] | EC50 (Melanocortin receptor 4 [7]; read-out: pEC50 (converted)) [nM] | Ki [8] [nM] | Activity (Melanocortin receptor 3 [9]) [%] | EC50 ([1]; read-out: EC50) [nM] | Activity (Melanocortin receptor 5 [4]; filed as agonist) [%] | EC50 (Melanocortin receptor 4 [7]; read-out: EC50) [nM] | EC50 (Melanocortin receptor 5 [10]) [nM] | Activity [11] [%] | Ki (Melanocortin receptor 4 [5]; read-out: Ki) [nM]
9 | C[C@@H]1NC(=O)c2cc(NC(=S)Nc3ccc4c(c3)C(=O)OC43c4ccc(O)cc4Oc4cc(O)ccc43)ccc2SC[C@@H](C(N)=O)NC(=O)[C@H](Cc2c[nH]c3ccccc23)NC(=O)[C@H](CCCNC(=N)N)NC(=O)[C@@H](Cc2ccccc2)NC(=O)[C@H](Cc2c[nH]cn2)NC1=O | 20.9 |  |  |  |  |  |  |  | 73 | 24 | 64 | 0.98 |  |  | 
10 | C[C@H]1NC(=O)[C@H](Cc2c[nH]c3ccccc23)NC(=O)[C@H](CCCNC(=N)N)NC(=O)[C@@H](Cc2ccccc2)NC(=O)[C@H](Cc2c[nH]cn2)NC(=O)c2cc([N+](=O)[O-])ccc2SC[C@@H](C(N)=O)NC1=O | 33.9 | > 1000 | 437 | 1 | 0.871 | 7.94 | 5.01 | 79.4 |  |  |  |  |  |  | 
11 | N#Cc1ccc2c(c1)C(=O)N[C@@H](Cc1c[nH]cn1)C(=O)N[C@H](Cc1ccccc1)C(=O)N[C@@H](CCCNC(=N)N)C(=O)N[C@@H](Cc1c[nH]c3ccccc13)C(=O)N[C@H](C(N)=O)CS2 |  | > 1000 | 661 | 0 | 0.794 |  | 63.1 | 158 | 44 |  |  |  |  | 58 | 
12 | N=C(N)NCCC[C@@H]1NC(=O)[C@@H](Cc2ccccc2)NC(=O)[C@H](Cc2cnc[nH]2)NC(=O)c2cc([N+](=O)[O-])ccc2SC[C@@H](C(N)=O)NC(=O)[C@H](Cc2c[nH]c3ccccc23)NC1=O |  |  |  | 3 |  |  |  |  |  |  |  |  |  |  | 
13 | N=C(N)NCCC[C@@H]1NC(=O)[C@@H](Cc2ccccc2)NC(=O)[C@H](Cc2c[nH]cn2)NC(=O)c2cc(N)ccc2SC[C@@H](C(N)=O)NC(=O)[C@H](Cc2c[nH]c3ccccc23)NC1=O | 50.1 | > 1000 | 813 |  | 0.331 |  | 316 | 269 | 42 |  | 60 |  |  |  | 
14 | NC(=O)[C@@H]1CSc2ccc([N+](=O)[O-])cc2C(=O)N[C@@H](Cc2cnc[nH]2)C(=O)N[C@H](Cc2ccccc2)C(=O)N[C@@H](CCCN=C(N)N)C(=O)N[C@@H](Cc2c[nH]c3ccccc23)C(=O)N1 | 1260 | > 1000 | 316 |  | 1.58 | 5010 | 501 | 126 |  |  |  |  |  |  | 
15 | C#Cc1ccc2c(c1)C(=O)N[C@@H](Cc1c[nH]cn1)C(=O)N[C@H](Cc1ccccc1)C(=O)N[C@@H](CCCNC(=N)N)C(=O)N[C@@H](Cc1c[nH]c3ccccc13)C(=O)N[C@H](C(N)=O)CS2 | 34.7 | > 1000 | 741 | 14 | 0.234 | 316 | 89.1 | 64.6 |  |  |  |  |  |  | 
